Laboratory results reported in patent US5391540A, “Substituted pyridine compounds” (Rohm and Haas Company, priority 1993, dated 1995).

What was measured:
Assay type in all cases: in vivo
Barnyardgrass [1] = experiment: Post-emergence herbicidal activity (Table C); details: Bygr, 11.2 kg/ha, 10-14 days
Excerpt: (§1) In the tests which follow, larger and more developed plants were used.
(§2) The post-emergent herbicidal activity index used in Table C is as follows:
(§3) Top soil was placed in pans having holes in the bottom and compacted to a depth of 0.95 to 1.27 cm. from the top of the pan. A predetermined number of seeds of each of several dicotyledonous and monocotyledonous annual plant species and/or vegetative propagules for the perennial plant species were placed on the soil and pressed into the soil surface. The seeds and/or vegetative propagules were covered with soil and leveled. The pans were then placed on a bench in the greenhouse and watered as needed for germination and growth. After the plants reached the desired age (two to three weeks), each pan (except the control pans) was moved to a spraying chamber and sprayed by means of an atomizer. […] The plant identifying codes in Table C are the same as above defined.

Common Lambsquarters [2] = experiment: Post-emergence herbicidal activity (Table C); details: Colq, 11.2 kg/ha, 10-14 days
Excerpt: as §1, §2, §3

Downy Brome [3] = experiment: Post-emergence herbicidal activity (Table C); details: Dobr, 11.2 kg/ha, 10-14 days
Excerpt: (§4) The post-emergent activity is best seen on younger plants treated at the 11/2 to 2 leaf stage. In the tests which follow, larger and more developed plants were used.
as §2
as §3, with “atomizer. The spray solution or suspension contained about 0.4% by volume of an emulsifying agent and a sufficient amount of the candidate chemical to give an application rate of the active ingredient of 11.2 kg/ha while applying a total amount of solution or suspension equivalent to 1870 L/ha.” for “atomizer.”

Pennsylvania Smartweed [4] = experiment: Post-emergence herbicidal activity (Table C); details: Pesw, 11.2 kg/ha, 10-14 days
Excerpt: as §4, §2
as §3, with “atomizer. The spray solution or suspension contained about 0.4% by volume of an emulsifying agent and a sufficient amount of the candidate chemical to give an application rate of the active ingredient of 11.2 kg/ha while applying a total amount of solution or suspension equivalent to 1870 L/ha.” for “atomizer.”

Yellow Nutsedge [5] = experiment: Post-emergence herbicidal activity (Table C); details: Yens, 11.2 kg/ha, 10-14 days
Excerpt: as §4, §2
as §3, with “atomizer. The spray solution or suspension contained about 0.4% by volume of an emulsifying agent and a sufficient amount of the candidate chemical to give an application rate of the active ingredient of 11.2 kg/ha while applying a total amount of solution or suspension equivalent to 1870 L/ha.” for “atomizer.”

Morningglory [6] = experiment: Post-emergence herbicidal activity (Table C); details: Mogl, 11.2 kg/ha, 10-14 days
Excerpt: as §4, §2
as §3, with “atomizer. The spray solution or suspension contained about 0.4% by volume of an emulsifying agent and a sufficient amount of the candidate chemical to give an application rate of the active ingredient of 11.2 kg/ha while applying a total amount of solution or suspension equivalent to 1870 L/ha.” for “atomizer.”

Cocklebur [7] = experiment: Post-emergence herbicidal activity (Table C); details: Cobu, 11.2 kg/ha, 10-14 days
Excerpt: as §4, §2
as §3, with “atomizer. The spray solution or suspension contained about 0.4% by volume of an emulsifying agent and a sufficient amount of the candidate chemical to give an application rate of the active ingredient of 11.2 kg/ha while applying a total amount of solution or suspension equivalent to 1870 L/ha.” for “atomizer.”

Canada thistle [8] = experiment: Post-emergence herbicidal activity (Table C); details: Cath, 11.2 kg/ha, 10-14 days
Excerpt: as §4, §2
as §3, with “atomizer. The spray solution or suspension contained about 0.4% by volume of an emulsifying agent and a sufficient amount of the candidate chemical to give an application rate of the active ingredient of 11.2 kg/ha while applying a total amount of solution or suspension equivalent to 1870 L/ha.” for “atomizer.”

Quackgrass [9] = experiment: Post-emergence herbicidal activity (Table C); details: Rhqg, 11.2 kg/ha, 10-14 days
Excerpt: as §4, §2
as §3, with “atomizer. The spray solution or suspension contained about 0.4% by volume of an emulsifying agent and a sufficient amount of the candidate chemical to give an application rate of the active ingredient of 11.2 kg/ha while applying a total amount of solution or suspension equivalent to 1870 L/ha.” for “atomizer.”

Rhizome Johnsongrass [10] = experiment: Post-emergence herbicidal activity (Table C); details: Rhjg, 11.2 kg/ha, 10-14 days
Excerpt: as §4, §2
as §3, with “atomizer. The spray solution or suspension contained about 0.4% by volume of an emulsifying agent and a sufficient amount of the candidate chemical to give an application rate of the active ingredient of 11.2 kg/ha while applying a total amount of solution or suspension equivalent to 1870 L/ha.” for “atomizer.”

Velvetleaf [11] = experiment: Post-emergence herbicidal activity (Table C); details: Vele, 11.2 kg/ha, 10-14 days
Excerpt: as §4, §2
as §3, with “atomizer. The spray solution or suspension contained about 0.4% by volume of an emulsifying agent and a sufficient amount of the candidate chemical to give an application rate of the active ingredient of 11.2 kg/ha while applying a total amount of solution or suspension equivalent to 1870 L/ha.” for “atomizer.”

Downy Brome [12] = experiment: Pre-emergent herbicidal activity (Table A); details: Dobr, 11.2 kg/ha, 10-14 days
In short: (§5)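 Seeds or perennial propagules set on compacted topsoil, then covered with soil mixed with a known amount of test compound applied in acetone or water carrier. Ratings assigned on a scale based on percent inhibition of each species.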

Pennsylvania Smartweed [13] = experiment: Pre-emergent herbicidal activity (Table A); details: Pesw, 11.2 kg/ha, 10-14 days
In short: as §5

Yellow Nutsedge [14] = experiment: Pre-emergent herbicidal activity (Table A); details: Yens, 11.2 kg/ha, 10-14 days
In short: as §5

Morningglory [15] = experiment: Pre-emergent herbicidal activity (Table A); details: Mogl, 11.2 kg/ha, 10-14 days
In short: as §5

Barnyardgrass [16] = experiment: Pre-emergent herbicidal activity (Table A); details: Bygr, 11.2 kg/ha, 10-14 days
In short: as §5

Cocklebur [17] = experiment: Pre-emergent herbicidal activity (Table A); details: Cobu, 11.2 kg/ha, 10-14 days
In short: as §5

Common Lambsquarters [18] = experiment: Pre-emergent herbicidal activity (Table A); details: Colq, 11.2 kg/ha, 10-14 days
In short: as §5

Canada thistle [19] = experiment: Pre-emergent herbicidal activity (Table A); details: Cath, 11.2 kg/ha, 10-14 days
In short: as §5

Quackgrass [20] = experiment: Pre-emergent herbicidal activity (Table A); details: Rhqg, 11.2 kg/ha, 10-14 days
In short: as §5

Rhizome Johnsongrass [21] = experiment: Pre-emergent herbicidal activity (Table A); details: Rhjg, 11.2 kg/ha, 10-14 days
In short: as §5

Velvetleaf [22] = experiment: Pre-emergent herbicidal activity (Table A); details: Vele, 11.2 kg/ha, 10-14 days
In short: as §5

3-pyridinecarboxylic acid, 5-(aminocarbonyl)-1,2,3,4-tetrahydro-4-(2-methylpropyl)-6-(pentafluoroethyl)-, ethyl ester [Compound 10]
post-emergent herbicidal activity index (Barnyardgrass [1]): 0 (0-24% inhibition) | post-emergent herbicidal activity index (Common Lambsquarters [2]): 0 (0-24% inhibition) | post-emergent herbicidal activity index (Downy Brome [3]): 0 (0-24% inhibition) | post-emergent herbicidal activity index (Pennsylvania Smartweed [4]): 0 (0-24% inhibition) | post-emergent herbicidal activity index (Yellow Nutsedge [5]): 0 (0-24% inhibition) | post-emergent herbicidal activity index (Morningglory [6]): 0 (0-24% inhibition) | post-emergent herbicidal activity index (Cocklebur [7]): 0 (0-24% inhibition) | post-emergent herbicidal activity index (Canada thistle [8]): 0 (0-24% inhibition) | post-emergent herbicidal activity index (Quackgrass [9]): 0 (0-24% inhibition) | post-emergent herbicidal activity index (Rhizome Johnsongrass [10]): 0 (0-24% inhibition) | post-emergent herbicidal activity index (Velvetleaf [11]): 0 (0-24% inhibition) | herbicidal rating (% inhibition) (Downy Brome [12]): 0 (0-24) | herbicidal rating (% inhibition) (Pennsylvania Smartweed [13]): 0 (0-24) | herbicidal rating (% inhibition) (Yellow Nutsedge [14]): 0 (0-24) | herbicidal rating (% inhibition) (Morningglory [15]): 0 (0-24) | herbicidal rating (% inhibition) (Barnyardgrass [16]): 0 (0-24) | herbicidal rating (% inhibition) (Cocklebur [17]): 0 (0-24) | herbicidal rating (% inhibition) (Common Lambsquarters [18]): 0 (0-24) | herbicidal rating (% inhibition) (Canada thistle [19]): 0 (0-24) | herbicidal rating (% inhibition) (Quackgrass [20]): 0 (0-24) | herbicidal rating (% inhibition) (Rhizome Johnsongrass [21]): 0 (0-24) | herbicidal rating (% inhibition) (Velvetleaf [22]): 0 (0-24)
